In patent US20250000882A1, “LYSOPHOSPHATIDYLCHOLINE COMBINATIONS AS A THERAPY TO TREAT CARDIAC ARREST” (THE FEINSTEIN INSTITUTES FOR MEDICAL RESEARCH, priority 2021, published 2025):

Experiments:
neuronal cells = conditions: rats supplemented with LPC; cited from earlier work
IL-6 = test: Plasma IL-6 level, 10 minutes of asphyxia-induced cardiac arrest rat model; format: in vivo; conditions: after 10 minutes of cardiac arrest
Protocol: (§1) Using the 10 minutes of asphyxia-induced cardiac arrest rat model, supplementing LPC (18:1) decreased inflammatory IL-6′ levels and increased the anti-inflammatory IL-10 levels in rat plasma after 10 minutes of cardiac arrest (FIG. 15A and FIG. 15B).

[1] = system: rats after 12 minutes of asphyxia-induced cardiac arrest; test: 12 minutes of asphyxia-induced cardiac arrest rat model (survival, plasma troponin I, SSEP); format: in vivo; conditions: 12 minutes of cardiac arrest
Protocol: (§2) The study was conducted using adult male Sprague-Dawley rats (400-500 g, Charles River Laboratories, Wilmington, MA) utilizing procedures for asphyxia-induced cardiac arrest and cardiopulmonary resuscitation (CPR). Briefly, asphyxial cardiac arrest was induced by stopping ventilation after injecting vecuronium bromide (2 mg/kg). After 10 or 14 minutes of asphyxia-cardiac arrest, ventilation was restarted with chest compressions. Typically, rats achieve ROSC within 1 minute after the initiation of CPR. Rats were extubated 2 hours after ROSC. Blood samples were collected from the femoral artery at baseline and multiple time points during cardiac arrest or postresuscitation. Plasma was separated using centrifugation at 1,000×g for 10 minute and stored at −80° C. Brain tissue was harvested from animals that survived for 72 hours after perfusion with saline and fixed with 4% paraformaldehyde.
The therapeutic effects of LPC species as well as combination of all three species was then tested using 12 minutes of cardiac arrest, which induces more severe injury than 10 minutes of cardiac arrest. […] Also compared was the plasma troponin I level to assess the effects of individual LPC species LPC (18:0), LPC (18:1), LPC (22:6) and the LPC Combination for heart function (see FIG. 8 and FIG. 9 respectively). […] Since these rats are severely injured and mNDS are not appropriate to measure their brain function, we used SSEP to compare the brain function between LPC (18:1) and LPC combination groups.

[2] = system: neurons in hippocampal CA1 region and cortex; test: Brain histology (Nissl and Fluoro-Jade B staining) at 72 hours post-resuscitation; format: in vivo, rat; conditions: for number of neurons in the hippocampus (Nissl staining), % of control values: 10-minute cardiac arrest; for degenerating cells in the cortex (FJB staining), fold increase compared with control value: vehicle seven-fold
Protocol: as §2
Plasma phospholipids were analyzed using plasma samples obtained from humans and rats following our established high-performance liquid chromatography-mass spectrometry (HPLC-MS) method. For brain histology, serial coronal sections (14 μm) were prepared from the fixed brain tissue using a cryostat (CM1900, Leica, Germany). The sections were used for Nissl staining to determine the number of surviving neurons in hippocampal CA1 region or Fluoro-Jade B (FJB) staining to count the number of degenerative neurons in the cortex.

[3] = system: rats after 10 minutes of asphyxia-induced cardiac arrest; test: Rat survival and neurologic function (mNDS) after 10-minute asphyxia-induced cardiac arrest with LPC supplementation; format: in vivo; conditions: for rat survival for 72 hr after resuscitation (Kaplan-Meier) / modified neurologic deficit score (mNDS) at 24 hours / modified neurologic deficit score (mNDS) at 72 hours: 10-minute cardiac arrest; for rat survival for 72 hr after resuscitation (Kaplan-Meier): 6 mg/kg LPC via femoral vein 1 minute after ROSC, vs vehicle; for modified neurologic deficit score (mNDS) at 24 hours / modified neurologic deficit score (mNDS) at 72 hours: surviving rats, 6 mg/kg, 100% = perfect score
Protocol: as §2
To test the beneficial effect of LPC supplementation, LPC (18:1) was first administered because it was the only commercially available species out of the four LPC species decreased after 10 minute of cardiac arrest. The study was then extended to test the effect of attached fatty acid by including custom-made LPC (22:6) and LPC (18:0). Different groups of control rats for each set of experiment for accurate assessment were used. Rats were randomized into each group (n=12). Baseline characteristics of rats were not different between the groups in each set of experiment.
The LPC species mixed with 0.5% bovine serum albumin (BSA) in phosphate-buffered saline (0.5 mL) was injected over 1 minute via the femoral vein cannula beginning 1 minute after ROSC, with vehicle group injected with only BSA. 6 mg/kg of LPC was injected, because this dosage preserved LPC level in post-resuscitation plasma for 2 hours after 10-minute cardiac arrest. The purities of the injected LPC species were over 98%.
Survival was followed for 72 hours with brain function evaluated in a blinded manner using the modified neurologic deficit score (mNDS) after resuscitation for surviving rats. The mNDS is expressed as percentage, with 100% representing perfect score.
Kaplan-Meier curves compared survival between the LPC and vehicle groups using the Wilcoxon test. For phospholipids levels, Mann-Whitney U test was used to compare two independent groups. Repeated measures analysis of variance was used to compare the vital signs between two groups. Spearman correlation coefficients were calculated to evaluate the correlation between blood pH and plasma LPC levels. For changes in plasma LPC levels postreperfusion, we performed Jonckheere-Terpstra test. Statistical analyses were performed using the JMP software (Version 14.2, SAS Institute, Cary, NC). p values of less than 0.05 were considered statistically significant. Data were expressed as the mean±se of the mean.

IL-10 = test: Plasma IL-10 level, 10 minutes of asphyxia-induced cardiac arrest rat model; format: in vivo; conditions: after 10 minutes of cardiac arrest
Protocol: as §1

[4] = diet supplemented with LPC; cited from earlier work
heart = test: Heart ejection fraction at 2 h after resuscitation; format: in vivo, rat; conditions: 10 min cardiac arrest per FIG. 13 legend
Protocol: (§3) The beneficial effects of LPC (18:2), LPC(20:4), and LPC (16:0) for their beneficial effects using the same cardiac arrest model were also tested. […] Furthermore, none of the LPC (18:2) treated rats were able to walk whereas 40 to 50% of LPC (22:6) and LPC (18:1) treated rats were able to walk.

lung = test: Lung wet-to-dry weight ratio after cardiac arrest; format: in vivo, rat
Protocol: as §3

Compound	plasma troponin I level [1]	number of neurons in the hippocampus (Nissl staining), % of control values [2]	degenerating cells in the cortex (FJB staining), fold increase compared with control value [2]	rat survival for 72 hr after resuscitation (Kaplan-Meier) [3]	modified neurologic deficit score (mNDS) at 24 hours [3]	modified neurologic deficit score (mNDS) at 72 hours [3]	other results
CCCCCCCCCCCCCC(=O)OC[C@@H](O)COP(=O)([O-])OCC[N+](C)(C)C [LPC (14:0)]							protection of neuronal cells after brain ischemia (neuronal cells): provided protecting to neuronal cells
lysophosphatidylcholine (18:1) [LPC (18:1)]	only the LPC Combination showed a decrease	86%	decreased to a three-fold increase	significantly improved rat survival	66%	76%	inflammatory IL-6 levels in rat plasma (IL-6): decreased; rat survival (Kaplan-Meier) [1]: most significantly improved rat survival; return of the SSEP signal (brain function) [1]: did not happen; anti-inflammatory IL-10 levels in rat plasma (IL-10): increased
lysophosphatidylcholine (22:6) [LPC (22:6)]	only the LPC Combination showed a decrease	88%	decreased to a three-fold increase	improved rat survival	51%	86%	cognitive functions [4]: improved their cognitive functions
lysophosphatidylcholine (18:2) [LPC (18:2)]							heart ejection fraction (heart): improved; lung wet-to-dry ratio (lung): Reduced; neuroprotective effect (mNDS at 48 hours and 72 hours) ([3]; 10 min cardiac arrest per FIG. 12 legend): not as good as LPC (18:1) or LPC (22:6); rat survival (Kaplan-Meier) ([3]; "same cardiac arrest model", 10 min cardiac arrest per FIG. 11 legend): significantly improve survival; treated rats able to walk ([3]; after cardiac arrest): none
lysophosphatidylcholine (18:0) [LPC (18:0)]	only the LPC Combination showed a decrease			no improved outcomes			effect on neuronal cellular morphology [2]: minimal effect
